According to US10183938B2, “Geminal substituted quinuclidine amide compounds as agonists of α-7 nicotonic acetylcholine receptors” (AXOVANT SCIENCES GMBH, priority 2014, dated 2019):
Structures can show the parent of a compound that is named as a salt.

Experiments:
[1] = tested on: male Wistar rats; assay: Novel Object Recognition task (natural forgetting); assay type: in vivo, rat; conditions: sub-cutaneous, 30 minutes before T1, 48-hour retention interval, p<0.05 novel vs. familiar object
Source text: Novel Object Recognition Task:
The Novel Object Recognition (NOR) task is a behavioral assay commonly used to evaluate cognition, particularly recognition memory, in rodent models of CNS disorders. This test is based on the spontaneous tendency of rodents to spend more time exploring a novel object compared to a familiar one. The choice to explore the novel object reflects the use of learning and recognition memory. The assay is commonly used to evaluate potential therapeutic agents for Alzheimer's disease, other neurodegenerative diseases and psychiatric disorders.
Male Wistar rats (Harlan Laboratories) weighing 350-400 grams were housed under a reversed light cycle and are tested during the dark cycle. Testing was done under low lux conditions, measured to be ˜2-7 lux under red light. Animals were habituated and weighed one day prior to testing. During habituation, animals were placed in a cylindrical arena and allowed to explore for 3 minutes. Training (T1) was conducted approximately 24 hours later, with one set of identical objects placed on opposite sides of the arena. Animals were allowed to explore the objects in 3-minute sessions. Animals were dosed with a designated treatment 15-60 minutes prior to testing depending on the pharmacokinetic profile of the compound before the start of T1. Drug or vehicle was dosed subcutaneously based on body weight at 5 mL/kg. Testing (T2) was done at 48 hours after T1. During testing, one familiar object is replaced with a novel object. Animals were allowed to explore both objects in 3-minute sessions.
Animals were tracked using Noldus Ethovision XT (EthoVision XT version: 8.5, Noldus Inc. Wageningen, Netherlands) tracking software, using a 2 centimeter (cm) perimeter for each object as a separate zone. The test arena consisted of a cylinder, 80 cm diameter with 40 cm high walls of black acrylic that was opaque and matte. […]
Contact time was defined as the amount of time (seconds) an animal spent within the 2 cm perimeter of an object. […] Statistical significance was determined using a Mann Whitney U-test and the criterion was set at p<0.05. […]

[2] = target: human α7 nAChRs transiently expressed in Xenopus laevis oocytes (Homo sapiens (Human), UniProt P36544); assay: Oocyte electrophysiology screen (TEVC); assay type: cell-based; conditions: 0.01 mM test compound, peak current relative to 0.2 mM ACh
In short: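 Peak inward current from 0.01 mM compound, applied 30 s, is expressed relative to a 5 s 0.2 mM ACh reference response, in triplicate. Recordings used two-electrode voltage clamp at −80 mV in Xenopus oocytes with 90 s OR2 washes.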

[3] = target: human 5-HT3 serotonin receptors (Homo sapiens (Human), UniProt P46098); assay: [3H]BRL 43694 competition binding; conditions: CHO cell membranes, [3H]BRL 43694, Cheng Prusoff; read-out: h-5HT3 Ki
Chain of human 5-HT3 serotonin receptors (P46098 24-478): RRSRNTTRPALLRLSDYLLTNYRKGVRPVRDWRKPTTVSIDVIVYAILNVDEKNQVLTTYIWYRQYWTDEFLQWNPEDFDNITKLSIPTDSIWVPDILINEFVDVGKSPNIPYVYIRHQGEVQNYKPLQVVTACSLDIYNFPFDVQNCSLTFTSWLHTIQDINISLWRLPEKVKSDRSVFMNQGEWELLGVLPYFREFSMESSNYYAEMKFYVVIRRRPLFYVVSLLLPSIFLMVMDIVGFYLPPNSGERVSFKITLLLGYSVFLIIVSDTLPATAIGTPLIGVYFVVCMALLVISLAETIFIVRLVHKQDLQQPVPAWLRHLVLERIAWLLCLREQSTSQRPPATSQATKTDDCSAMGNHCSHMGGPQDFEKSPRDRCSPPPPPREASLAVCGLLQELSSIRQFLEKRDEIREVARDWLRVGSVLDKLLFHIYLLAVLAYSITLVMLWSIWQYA

Chain of human α7 nAChRs transiently expressed in Xenopus laevis oocytes (P36544 23-502 limits assumed): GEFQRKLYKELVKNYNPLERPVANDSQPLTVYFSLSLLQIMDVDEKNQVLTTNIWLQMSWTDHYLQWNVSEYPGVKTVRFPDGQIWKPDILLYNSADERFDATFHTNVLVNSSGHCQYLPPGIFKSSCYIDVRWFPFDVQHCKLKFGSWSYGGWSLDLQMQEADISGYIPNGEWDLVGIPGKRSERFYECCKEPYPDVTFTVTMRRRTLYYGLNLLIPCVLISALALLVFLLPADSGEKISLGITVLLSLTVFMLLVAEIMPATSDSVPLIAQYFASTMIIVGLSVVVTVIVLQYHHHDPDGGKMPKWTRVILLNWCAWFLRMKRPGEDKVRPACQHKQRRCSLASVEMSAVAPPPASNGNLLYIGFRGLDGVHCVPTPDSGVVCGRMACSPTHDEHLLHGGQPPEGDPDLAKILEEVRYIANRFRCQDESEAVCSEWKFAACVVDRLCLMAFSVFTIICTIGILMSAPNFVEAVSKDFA

Structure (SMILES)	Active doses [1]	% ACh @ 10 μM Oocyte ([2]; hydrochloride)	Ki [3]	% ACh @ 10 μM Oocyte [2]
O=C(NC1C2CCN(CC2)C12CC2)c1cc2ccc(Cl)cc2s1 (single isomer, unassigned; enantiomer1) [65a, 6-chloro-N-(1′-azaspiro[cyclopropane-1,2′-bicyclo[2.2.2]octan]-3′-yl)benzo[b]thiophene-2-carboxamide-enantiomer1 hydrochloride]	0.3 mg/kg	682 % ACh		
Cc1ccc2cc(C(=O)NC3C4CCN(CC4)C34CC4)sc2c1 (single isomer, unassigned; enantiomer1) [68a, 6-methyl-N-(1′-azaspiro[cyclopropane-1,2′-bicyclo[2.2.2]octan]-3′-yl)benzo[b]thiophene-2-carboxamide-enantiomer1 hydrochloride]	0.001 mg/kg	769 % ACh		
COc1ccc2cc(C(=O)N[C@@H]3C4CCN(CC4)C3(C)C)sc2c1 [(R)-20, (R)—N-(2,2-dimethylquinuclidin-3-yl)-6-methoxybenzo[b]thiophene-2-carboxamide hydrochloride]			> 10 µM	558 % ACh
CC1(C)[C@H](NC(=O)c2cc3ccc(Cl)cc3s2)C2CCN1CC2 [(R)-12, (R)-6-chloro-N-(2,2-dimethylquinuclidin-3-yl)benzo[b]thiophene-2-carboxamide hydrochloride]	30 mg/kg		> 10 µM	765 % ACh
CC1(C)[C@H](NC(=O)c2cc3ccoc3cn2)C2CCN1CC2 [(R)-22, (R)—N-(2,2-dimethylquinuclidin-3-yl)furo[2,3-c]pyridine-5-carboxamide hydrochloride]			6.5 µM	456 % ACh
Cc1ccc2cc(C(=O)N[C@@H]3C4CCN(CC4)C3(C)C)sc2c1F [(R)-53, (R)—N-(2,2-dimethylquinuclidin-3-yl)-7-fluoro-6-methylbenzo[b]thiophene-2-carboxamide hydrochloride]			5.9 µM	576 % ACh
CC1(C)[C@H](NC(=O)c2cc3cccc(Cl)c3s2)C2CCN1CC2 [(R)-3, (R)-7-chloro-N-(2,2-dimethylquinuclidin-3-yl)benzo[b]thiophene-2-carboxamide hydrochloride]			0.27 µM	304 % ACh
O=C(N[C@@H]1C2CCN(CC2)C12CC2)c1cc2ccc(Cl)c(F)c2s1 [(R)-151, (R)-6-chloro-7-fluoro-N-(1′-azaspiro[cyclopropane-1,2′-bicyclo[2.2.2]octan]-3′-yl)benzo[b]thiophene-2-carboxamide hydrochloride]			> 10 µM	409 % ACh
